Measurements: PMC5615155 (Toxicology Reports, 2017)

Experiments:
solubility / dissolution = format: physicochemical
[1] = single-dose pharmacokinetics and oral bioavailability; format: in vivo, Sprague-Dawley rats; conditions: for AUClast / Cmax: S2218 in plasma
[2] = dose range-finding developmental toxicity study; format: in vivo, Crl:CD(SD) rats
[3] = toxicokinetics in 13-week dietary study; format: in vivo, Sprague-Dawley rats
[4] = S8069 oral gavage, 7.83 mg/kg bw S2218 equiv., F
[5] = S8069 oral gavage, 7.83 mg/kg bw S2218 equiv., M
[6] = S8069 oral gavage, 78.3 mg/kg bw S2218 equiv., F
[7] = S8069 oral gavage, 78.3 mg/kg bw S2218 equiv., M

With `Cc1cc(C(=O)NC(C)(C)COc2cccc3c2C(N)=NS(=O)(=O)N3)cc(C)n1.O=S(=O)(O)O` [S8069] the solubility in water (solubility / dissolution) was “very soluble in water”, the “state in 1% methylcellulose dosing formulation” value (solubility / dissolution; S8069 at 10 mg/mL, S2218 at all dose levels) was “completely dissolved” and the “%F” value [1, 4] was 0.77%. The Tmax [1, 4] was 15 ± 0 min, the t1/2 [1, 4] was 69 ± 21.2 min and the AUClast [1, 4] was 26.4 ± 14.3 ng·h/mL. The Cmax [1, 4] was 24.4 ± 10.1 ng/mL, the “%F” value [1, 5] was 0.60% and the Tmax [1, 5] was 18.8 ± 7.5 min. For the same compound, the t1/2 [1, 5] was 47.2 ± 6.6 min, the AUClast [1, 5] was 23.6 ± 5.26 ng·h/mL and the Cmax [1, 5] was 21.4 ± 1.54 ng/mL. The “%F” value [1, 6] was 0.29%, the Tmax [1, 6] was 15 ± 0 min and the t1/2 [1, 6] was 58.1 ± 18.9 min. For the same compound, the AUClast [1, 6] was 99.1 ± 23.2 ng·h/mL, the Cmax [1, 6] was 106 ± 39.7 ng/mL and the “%F” value [1, 7] was 0.14%. It also gave a Tmax [1, 7] of 15 ± 0 min, a t1/2 [1, 7] of 51.6 ± 20.4 min and an AUClast [1, 7] of 55.6 ± 17.8 ng·h/mL. For the same compound, the Cmax [1, 7] was 60.5 ± 16.9 ng/mL, the “%F” value ([1]; oral, both test articles, male and female rats, all doses) was 0.14–0.77% and the “external developmental malformations or variations in fetuses” value ([2]; 125–1000 mg/kg bw/day) was “No external developmental malformations or variations were observed”. The Findings ([2]; 125–1000 mg/kg bw/day oral gavage, GD 6–20) was “No maternal toxicity or effect on intrauterine growth up to 1000 mg/kg bw/day”, the “ACUM Ratio (dose-normalized AUC0-24h Day 91/Day 7)” value ([3]; 30 mg/kg bw, F) was 1.35 and the “ACUM Ratio (dose-normalized AUC0-24h Day 91/Day 7)” value ([3]; 30 mg/kg bw, M) was 2.86. The “ACUM Ratio (dose-normalized AUC0-24h Day 91/Day 7)” value ([3]; 30 mg/kg bw, M + F) was 1.88, the “ACUM Ratio (dose-normalized AUC0-24h Day 91/Day 7)” value ([3]; 70 mg/kg bw, F) was 0.821 and the “ACUM Ratio (dose-normalized AUC0-24h Day 91/Day 7)” value ([3]; 70 mg/kg bw, M) was 1.07. For the same compound, the “ACUM Ratio (dose-normalized AUC0-24h Day 91/Day 7)” value ([3]; 70 mg/kg bw, M + F) was 0.954, the “ACUM Ratio (dose-normalized AUC0-24h Day 91/Day 7)” value ([3]; 140 mg/kg bw, F) was 0.768 and the “ACUM Ratio (dose-normalized AUC0-24h Day 91/Day 7)” value ([3]; 140 mg/kg bw, M) was 4.55. The “ACUM Ratio (dose-normalized AUC0-24h Day 91/Day 7)” value ([3]; 140 mg/kg bw, M + F) was 2.30, the “F:M Ratio (AUC0-24h/Dose)” value ([3]; Day 7, 30 mg/kg bw) was 1.75 and the AUC0-24h ([3]; Day 7, 30 mg/kg bw diet, F) was 253 ng·h/mL. The AUC0-24h/Dose ([3]; Day 7, 30 mg/kg bw diet, F) was 9.10 ng·h/mL/mg/kg, the Cmax ([3]; Day 7, 30 mg/kg bw diet, F) was 20.1 ng/mL and the Cmax/Dose ([3]; Day 7, 30 mg/kg bw diet, F) was 0.723 ng/mL/mg/kg. The Tmax ([3]; Day 7, 30 mg/kg bw diet, F) was 180 min, the AUC0-24h ([3]; Day 7, 30 mg/kg bw diet, M) was 134 ng·h/mL and the AUC0-24h/Dose ([3]; Day 7, 30 mg/kg bw diet, M) was 5.19 ng·h/mL/mg/kg. It also gave a Cmax ([3]; Day 7, 30 mg/kg bw diet, M) of 14.0 ng/mL, a Cmax/Dose ([3]; Day 7, 30 mg/kg bw diet, M) of 0.543 ng/mL/mg/kg and a Tmax ([3]; Day 7, 30 mg/kg bw diet, M) of 60 min. It also gave an AUC0-24h ([3]; Day 7, 30 mg/kg bw diet, M + F) of 194 ng·h/mL, an AUC0-24h/Dose ([3]; Day 7, 30 mg/kg bw diet, M + F) of 7.24 ng·h/mL/mg/kg and a Cmax ([3]; Day 7, 30 mg/kg bw diet, M + F) of 11.1 ng/mL. For the same compound, the Cmax/Dose ([3]; Day 7, 30 mg/kg bw diet, M + F) was 0.414 ng/mL/mg/kg, the Tmax ([3]; Day 7, 30 mg/kg bw diet, M + F) was 180 min and the “F:M Ratio (AUC0-24h/Dose)” value ([3]; Day 7, 70 mg/kg bw) was 0.914. It also gave an AUC0-24h ([3]; Day 7, 70 mg/kg bw diet, F) of 610 ng·h/mL, an AUC0-24h/Dose ([3]; Day 7, 70 mg/kg bw diet, F) of 9.33 ng·h/mL/mg/kg and a Cmax ([3]; Day 7, 70 mg/kg bw diet, F) of 44.4 ng/mL. The Cmax/Dose ([3]; Day 7, 70 mg/kg bw diet, F) was 0.679 ng/mL/mg/kg, the Tmax ([3]; Day 7, 70 mg/kg bw diet, F) was 0 min and the AUC0-24h ([3]; Day 7, 70 mg/kg bw diet, M) was 641 ng·h/mL. For the same compound, the AUC0-24h/Dose ([3]; Day 7, 70 mg/kg bw diet, M) was 10.2 ng·h/mL/mg/kg, the Cmax ([3]; Day 7, 70 mg/kg bw diet, M) was 32.8 ng/mL and the Cmax/Dose ([3]; Day 7, 70 mg/kg bw diet, M) was 0.522 ng/mL/mg/kg. The Tmax ([3]; Day 7, 70 mg/kg bw diet, M) was 360 min, the AUC0-24h ([3]; Day 7, 70 mg/kg bw diet, M + F) was 626 ng·h/mL and the AUC0-24h/Dose ([3]; Day 7, 70 mg/kg bw diet, M + F) was 9.77 ng·h/mL/mg/kg. The Cmax ([3]; Day 7, 70 mg/kg bw diet, M + F) was 34.3 ng/mL, the Cmax/Dose ([3]; Day 7, 70 mg/kg bw diet, M + F) was 0.535 ng/mL/mg/kg and the Tmax ([3]; Day 7, 70 mg/kg bw diet, M + F) was 720 min.
